{"source": "patent US20130237582A1", "about": "“PHARMACEUTICAL COMBINATION OF PACLITAXEL AND A CDK INHIBITOR” (Piramal Enterprises Limited, priority 2010, published 2013)", "key": {"MCF-7 [1]": {"test_system": "MCF-7", "assay": "Cell cycle progression and apoptosis by flow cytometry (sub-G1)", "type": "cell-based, human", "conditions": "4.5 μM", "procedure": "Time dependent effect of Compound A on cell cycle progression and apoptosis was evaluated in two breast cancer cell lines. The asynchronous human breast cancer cell lines MCF-7 (Her low, ER+, PR+, BRCA+/−allelic loss) and MDA-MB-231 cells were seeded in […] tissue culture flask at a density of 0.5×10^6 cells per flask in RPMI 1460 with 10% FCS. After 24 h, cells were treated with 4.5 μM of Compound A for 0, 24, 48 and 72 h. Both detached and adherent cells were harvested (trypsinised) at different time points as mentioned in Table 3. After washing in phosphate buffered saline (PBS), cells were fixed in ice-cold 70% ethanol and stored at −20° C. until further analysis.\n(§1) Before analysis, cells were washed twice with PBS to remove the fixative and re-suspended in PBS containing 50 μg/mL propidium iodide and 50 μg/mL RNaseA. After incubation at room temperature (20-35° C.) for 20 min, cells were analyzed using flow cytometry. A Becton Dickinson FACS Calibur flow cytometer (BD, USA) was used for these studies. The argon ion laser set at 488 nm was used as an excitation source. Cells with DNA content between 2n and 4n were designated as being in G1, S and G2/M phases of the cell cycle, as defined by the level of red fluorescence. […] The number of cells in each cell cycle compartment was expressed as a percentage of the total number of cells present. The results are shown in Table 3 and graphically presented in FIG. 3A (MCF-7 cell lines) and FIG. 3B (MDA-MB-231 cell lines)."}, "PARP [2]": {"molecular_target": "T1, PARP (Homo sapiens, UniProt P09874)", "T1 construct": "endogenous in cells; host or cells: MDA-MB-231; MDA-MB-468", "T1 sequence (P09874 2-1014 limits assumed)": "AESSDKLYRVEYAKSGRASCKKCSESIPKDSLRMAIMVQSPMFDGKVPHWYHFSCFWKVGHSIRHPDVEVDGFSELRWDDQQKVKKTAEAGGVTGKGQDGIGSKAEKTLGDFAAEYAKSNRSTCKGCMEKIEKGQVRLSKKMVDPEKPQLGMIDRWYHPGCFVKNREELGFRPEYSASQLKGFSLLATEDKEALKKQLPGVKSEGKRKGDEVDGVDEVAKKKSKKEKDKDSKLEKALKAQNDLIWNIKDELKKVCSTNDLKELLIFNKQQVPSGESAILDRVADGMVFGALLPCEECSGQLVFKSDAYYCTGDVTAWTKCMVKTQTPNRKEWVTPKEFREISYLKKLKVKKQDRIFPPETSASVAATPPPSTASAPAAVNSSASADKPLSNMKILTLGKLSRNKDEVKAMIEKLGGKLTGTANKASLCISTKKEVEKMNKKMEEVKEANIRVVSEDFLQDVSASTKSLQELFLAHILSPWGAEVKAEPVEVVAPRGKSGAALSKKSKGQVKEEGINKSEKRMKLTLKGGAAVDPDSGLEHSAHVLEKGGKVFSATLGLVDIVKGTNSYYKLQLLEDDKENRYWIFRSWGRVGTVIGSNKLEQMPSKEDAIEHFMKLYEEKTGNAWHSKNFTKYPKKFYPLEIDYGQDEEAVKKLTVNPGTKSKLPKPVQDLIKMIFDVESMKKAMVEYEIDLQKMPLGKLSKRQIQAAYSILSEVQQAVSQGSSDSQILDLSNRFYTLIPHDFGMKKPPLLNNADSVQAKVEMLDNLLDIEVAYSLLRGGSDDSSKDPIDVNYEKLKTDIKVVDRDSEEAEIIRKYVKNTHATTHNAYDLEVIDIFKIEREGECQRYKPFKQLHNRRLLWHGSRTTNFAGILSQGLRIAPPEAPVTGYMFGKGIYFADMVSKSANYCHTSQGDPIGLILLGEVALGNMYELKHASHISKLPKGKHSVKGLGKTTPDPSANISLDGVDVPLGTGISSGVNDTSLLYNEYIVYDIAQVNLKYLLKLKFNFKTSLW", "assay": "PARP enzyme activity measured by PAR polymers (Western blot), MDA-MB-231", "type": "cell-based", "conditions": "1.5 μM and 5 μM, 24 h", "procedure": "(§2) To study PARP enzyme activity, PAR polymer formation was measured. MDA-MB-231 and MDA-MB-468 cells were seeded in RPMI 1460 medium with 10% FCS in […] tissue culture flask and incubated for 24 h. These cells were treated at 1.5 μM and 5 μM of Compound A for 24 h. The cells were harvested (trypsinised) and lysed using lysis buffer. Western blotting (Molecular Cancer Therapeutics, 2007, 6, 918-925) was done with specific antibody to PAR.\n(§3) Correlation of PARP activity and cell cycle proteins cyclin D1, total Rb and pRb 780 were studied in two TNBC cell lines viz. MDA-MB-468 and MDA-MB-231. MDA-MB-231 and MDA-MB-468 cells were seeded in RPMI 1460 medium with 10% FCS in […] tissue culture flask and incubated for 24 h. These cells were treated at 1.5 μM and 5 μM Compound A for 24 h. The cells were harvested (trypsinised) and lysed using lysis buffer. Western blotting was carried out (Molecular Cancer […], 2007, 6, 918-925) using specific antibody to PAR, PARP, cyclin D1, CDK4 and pRb Ser 780."}, "[3]": {"test_system": "all the breast cancer cell lines", "assay": "PI assay, summary over the breast cancer cell line panel", "type": "cell-based", "conditions": "Homo sapiens; nine breast cancer cell lines of Table 1B; read-out: IC50 range over all the breast cancer cell lines", "procedure": "(§4) The propidium iodide fluorescence assay (PI) was carried out according to the procedure mentioned in Anticancer Drugs, 1995, 6, 522-32. The assay was developed to characterize the in vitro growth of human tumor cell lines as well as to test the cytotoxic activity of the compounds. Propidium iodide (PI) was used as a dye, which penetrates only damaged cellular membranes. Intercalation complexes are formed by PI with double-stranded DNA, which effect an amplification of the fluorescence. After freezing the cells at −20° C. for 24 h, PI had access to total DNA leading to total cell population counts. Background readings were obtained from cell-free wells containing media and propidium iodide. The human breast cancer cell lines (i.e. […] Control wells were treated with vehicle (DMSO). At the end of the incubation periods, the plates were assayed using PI cytotoxicity assay protocol. Percent cytoxicity was calculated at various drug concentrations and from the graph plotted the IC50 values were determined."}, "Bcl-2 [4]": {"test_system": "Bcl-2", "assay": "Western blot analysis in MDA-MB-231 cells", "type": "cell-based, human", "conditions": "1.5 and 4.5 μM, 6, 24 and 30 h", "procedure": "(§5) The Western blot assay was carried out according to the procedure disclosed in Molecular Cancer Therapeutics, 2007, 6, 918-925 with some modifications.\n(§6) MCF-7 and MDA-MB-231 cells were seeded in RPMI 1460 medium with 10% FCS in […] tissue culture flask and incubated for 24 h. The cells were treated with Compound A at 1.5 and 4.5 μM. At various time points, i.e. 6, 24 and 30 h the cells were harvested or trypsinized and lysed using lysis buffer (Sigma Aldrich, USA). Protein content was estimated. Lysate was applied to Sodium Dodecyl Sulphate-Polyacrylamide Gel Electrophoresis (SDS-PAGE) followed by western blotting (Molecular Cancer Therapeutics, 2007, 6, 918-925). Western blotting was done using specific antibodies to Bcl-2 and actin. The results are depicted in FIG. 4."}, "PARP [5]": {"molecular_target": "T1, PARP", "assay": "PARP enzyme activity measured by PAR polymers (Western blot), MDA-MB-468", "type": "cell-based", "conditions": "1.5 μM and 5 μM, 24 h, hydrochloride", "procedure": "as §2, §3"}, "MCF-7 [6]": {"test_system": "MCF-7", "assay": "Cytotoxicity assay using propidium iodide (PI)", "type": "cell-based, human", "procedure": "as §4"}, "MDA-MB-231": {"test_system": "MDA-MB-231", "assay": "Cytotoxicity assay using propidium iodide (PI)", "type": "cell-based, human", "procedure": "as §4"}, "MDA-MB-468 [7]": {"test_system": "MDA-MB-468", "assay": "Cytotoxicity assay using propidium iodide (PI)", "type": "cell-based, human", "procedure": "as §4"}, "Bcl-2 [8]": {"test_system": "Bcl-2", "assay": "Western blot analysis in MCF-7 cells", "type": "cell-based, human", "conditions": "1.5 and 4.5 μM, 6, 24 and 30 h", "procedure": "as §5, §6"}, "MDA-MB-468 [9]": {"test_system": "MDA-MB-468", "assay": "Cell cycle progression and apoptosis by flow cytometry (sub-G1)", "type": "cell-based, human", "procedure": "as §1\nComparison of the effect of Compound A and PARP inhibitor BSI-201 (Iniparib developed by Sanofi-Aventis. BSI-201 is prepared in-house) on cell cycle progression and apoptosis was evaluated in two TNBC cell lines. The asynchronous human TNBC cell lines MDA-MB-231 and MDA-MB-468 were seeded in […] tissue culture flask at a density of 0.5×10^6 cells per flask in RPMI 1460 with 10% FCS. After 24 h, cells were treated either with 1.5 and 3.0 μM of Compound A or 50 μM of PARP inhibitor BSI-201 for 72 h. After the incubation cells were harvested (trypsinised) and processed as given in example 6."}, "[10]": {"conditions": "Homo sapiens, 48 h treatment, PI assay"}}, "note": "Entries after “also recorded” stand apart in the source; their conditions may differ."}
{"molecule": "CN1CC[C@@H](c2c(O)cc(O)c3c(=O)cc(-c4ccccc4Cl)oc23)[C@@H]1CO.Cl", "note": "[Compound A, (+)-trans-2-(2-Chloro-phenyl)-5,7-dihydroxy-8-(2-hydroxymethyl-1-methyl-pyrrolidin-3-yl)-chromen-4-one hydrochloride]", "values": [{"measurement": "% Apoptosis", "setting": "MCF-7 [1]; 0 h", "result": 1, "unit": "%"}, {"measurement": "% Apoptosis", "setting": "MCF-7 [1]; 24 h", "result": 52, "unit": "%"}, {"measurement": "% Apoptosis", "setting": "MCF-7 [1]; 48 h", "result": 80, "unit": "%"}, {"measurement": "% Apoptosis", "setting": "MCF-7 [1]; 72 h", "result": 88, "unit": "%"}, {"measurement": "PARP enzyme activity (PAR polymer formation)", "setting": "PARP [2]", "result": "inhibits PARP enzyme activity"}, {"measurement": "IC50", "setting": "[3]", "result": "300 to 1000", "unit": "nM"}, {"measurement": "expression of antiapoptotic protein Bcl-2", "setting": "Bcl-2 [4]", "result": "significant down regulation was observed at 30 h"}, {"measurement": "PARP enzyme activity (PAR polymer formation)", "setting": "PARP [5]", "result": "the formation of PAR polymers is not inhibited; also recorded: no change in the PAR polymer formation"}, {"measurement": "IC50", "setting": "MCF-7 [6]; Homo sapiens, MCF7, PI assay", "result": 1000, "unit": "nM"}, {"measurement": "IC10", "setting": "MCF-7 [6]; determined as in Example 3", "result": 0.37, "unit": "µM"}, {"measurement": "IC30", "setting": "MCF-7 [6]; determined as in Example 3", "result": 0.75, "unit": "µM"}, {"measurement": "IC50", "setting": "MDA-MB-231; [10]", "result": 1000, "unit": "nM"}, {"measurement": "IC10", "setting": "MDA-MB-231; determined as in Example 3", "result": 0.45, "unit": "µM"}, {"measurement": "IC30", "setting": "MDA-MB-231; determined as in Example 3", "result": 0.75, "unit": "µM"}, {"measurement": "IC50", "setting": "MDA-MB-468 [7]; [10]", "result": 1000, "unit": "nM"}, {"measurement": "IC10", "setting": "MDA-MB-468 [7]; determined as in Example 3", "result": 0.25, "unit": "µM"}, {"measurement": "IC30", "setting": "MDA-MB-468 [7]; determined as in Example 3", "result": 0.5, "unit": "µM"}, {"measurement": "expression of antiapoptotic protein Bcl-2", "setting": "Bcl-2 [8]", "result": "significantly down regulated from 24 h onwards"}, {"measurement": "% apoptosis at 72 h", "setting": "MDA-MB-468 [9]; 1.5 μM", "result": 36.09, "unit": "%"}, {"measurement": "% apoptosis at 72 h", "setting": "MDA-MB-468 [9]; 3 μM", "result": 62.5, "unit": "%"}]}
